# Experimental data taken from patent US20060069132A1, “Azolecarboxamide herbicides” (priority 2004, published 2006).
# Columns and labels:
# morningglory = test: Test B pre-/postemergence herbicide test; assay type: in vivo, Ipomoea coccinea; conditions: for Morningglory plant response rating: postemergence, scale 0 (no effect) to 100 (complete control)
# In short: (§1)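 Seeds were planted and treated preemergence with compounds formulated in a non-phytotoxic solvent mixture containing surfactant, while plants at the 1- to 4-leaf stage (2 to 18 cm) received postemergence sprays. Flooded paddy plants were grown to the 2-leaf stage. After 13 to 15 days in a greenhouse, injury was visually rated 0–100 against untreated controls.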
# pigweed = test: Test B pre-/postemergence herbicide test; assay type: in vivo, Amaranthus retroflexus; conditions: for Pigweed plant response rating: postemergence, scale 0 (no effect) to 100 (complete control)
# In short: (§2)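 Response was scored visually 13 to 15 days after treatment against untreated greenhouse controls, 0 meaning no effect and 100 complete control. Formulations (solvent mixture plus surfactant) went onto soil after planting, onto foliage of 1- to 4-leaf plants, and onto 2-leaf plants in a flooded paddy set including rice and barnyardgrass.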
# ducksalad = test: Test B flooded paddy test; assay type: in vivo, Heteranthera limosa; conditions: 1000 g ai/ha, visual rating, scale 0 to 100 (0 no effect, 100 complete control), 13 to 15 days
# In short: (§3)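 Postemergence plants were sprayed with formulated test chemicals at 2 to 18 cm height (1- to 4-leaf stage); paddy species were grown to the 2-leaf stage. After 13 to 15 days in a greenhouse, injury was rated visually against untreated controls on a 0–100 scale (0 = no effect, 100 = complete control).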
# Surinam grass = test: Test B pre-/postemergence herbicide test; assay type: in vivo, Urochloa decumbens; conditions: for Surinam Grass plant response rating: postemergence, scale 0 (no effect) to 100 (complete control)
# In short: as §2
# [1] = test system: small flower umbrella sedge; test: Test B flooded paddy test; assay type: in vivo, Cyperus difformis; conditions: 1000 g ai/ha, visual rating, scale 0 to 100 (0 no effect, 100 complete control), 13 to 15 days
# In short: as §3
# barnyardgrass [2] = test: Test B flooded paddy test; assay type: in vivo, Echinochloa crus-galli; conditions: 1000 g ai/ha, visual rating, scale 0 to 100 (0 no effect, 100 complete control), 13 to 15 days
# In short: as §3
# rice = test: Test B flooded paddy test; assay type: in vivo, Oryza sativa; conditions: 1000 g ai/ha, visual rating, scale 0 to 100 (0 no effect, 100 complete control), 13 to 15 days
# In short: as §3
# large crabgrass = test: Test B pre-/postemergence herbicide test; assay type: in vivo, Digitaria sanguinalis; conditions: for Crabgrass, Large plant response rating: postemergence, scale 0 (no effect) to 100 (complete control)
# In short: as §2
# velvetleaf = test: Test B pre-/postemergence herbicide test; assay type: in vivo, Abutilon theophrasti; conditions: for Velvetleaf plant response rating: postemergence, scale 0 (no effect) to 100 (complete control)
# In short: as §2
# barnyardgrass [3] = test: Test B pre-/postemergence herbicide test; assay type: in vivo, Echinochloa crus-galli; conditions: for Barnyardgrass plant response rating: postemergence, scale 0 (no effect) to 100 (complete control)
# In short: as §1
# cocklebur = test: Test B pre-/postemergence herbicide test; assay type: in vivo, Xanthium strumarium; conditions: for Cocklebur plant response rating: postemergence, scale 0 (no effect) to 100 (complete control)
# In short: as §1
# blackgrass = test: Test B postemergence herbicide test; assay type: in vivo, Alopecurus myosuroides; conditions: postemergence, visual rating, scale 0 (no effect) to 100 (complete control)
# In short: as §3
# wild oat = test: Test B postemergence herbicide test; assay type: in vivo, Avena fatua; conditions: postemergence, visual rating, scale 0 (no effect) to 100 (complete control)
# In short: (§4)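 Each value is a visual 0–100 response rating taken against controls 13 to 15 days after treatment in the greenhouse. Plants received formulated chemical postemergence at the 1- to 4-leaf stage or, in flooded paddy, at the 2-leaf stage.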
# corn = test: Test B pre-/postemergence herbicide test; assay type: in vivo, Zea mays; conditions: for Corn plant response rating: postemergence, scale 0 (no effect) to 100 (complete control)
# In short: as §2
# lambsquarters = test: Test B pre-/postemergence herbicide test; assay type: in vivo, Chenopodium album; conditions: for Lambsquarters plant response rating: postemergence, scale 0 (no effect) to 100 (complete control)
# In short: as §2
# wheat = test: Test B postemergence herbicide test; assay type: in vivo, Triticum aestivum; design: key to Wheat plant response rating: 0 = no effect, 100 = complete control; conditions: postemergence, visual rating, scale 0 (no effect) to 100 (complete control)
# In short: as §4
# [4] = 125 g ai/ha, 0 = no effect, 100 = complete control, preemergence
# [5] = 500 g ai/ha, visual rating, 0 = no effect, 100 = complete control, preemergence
smiles,measurement,setting,value
CCc1nn(C(C)(C)C)cc1C(=O)Nc1cc(C(=O)N(CC)CC)ccc1F [Compound 223],Morningglory plant response rating (0 to 100 scale),morningglory; [4],10
same,"Plant response rating, Morningglory",morningglory; [5],30
same,Morningglory plant response rating,"morningglory; 125 g ai/ha, visual rating",40
same,Morningglory plant response rating,"morningglory; 500 g ai/ha, visual rating",80
same,Pigweed plant response rating (0 to 100 scale),pigweed; [4],90
same,"Plant response rating, Pigweed",pigweed; [5],100
same,Pigweed plant response rating,"pigweed; 125 g ai/ha, visual rating",60
same,Pigweed plant response rating,"pigweed; 500 g ai/ha, visual rating",70
same,Ducksalad plant response rating,ducksalad,90
same,Surinam Grass plant response rating (0 to 100 scale),Surinam grass; [4],20
same,"Plant response rating, Surinam Grass",Surinam grass; [5],90
same,Surinam Grass plant response rating,"Surinam grass; 125 g ai/ha, visual rating",10
same,Surinam Grass plant response rating,"Surinam grass; 500 g ai/ha, visual rating",10
same,"Sedge, Umbrella plant response rating",[1],80
same,Barnyardgrass plant response rating,barnyardgrass [2],40
same,Rice plant response rating,rice,70
same,"Crabgrass, Large plant response rating (0 to 100 scale)",large crabgrass; [4],50
same,"Plant response rating, Crabgrass, Large",large crabgrass; [5],100
same,"Crabgrass, Large plant response rating","large crabgrass; 125 g ai/ha, visual rating",10
same,"Crabgrass, Large plant response rating","large crabgrass; 500 g ai/ha, visual rating",20
same,Velvetleaf plant response rating (0 to 100 scale),velvetleaf; [4],30
same,"Plant response rating, Velvetleaf",velvetleaf; [5],100
same,Velvetleaf plant response rating,"velvetleaf; 125 g ai/ha, visual rating",20
same,Velvetleaf plant response rating,"velvetleaf; 500 g ai/ha, visual rating",20
same,Barnyardgrass plant response rating (0 to 100 scale),barnyardgrass [3]; [4],20
same,"Plant response rating, Barnyardgrass",barnyardgrass [3]; [5],80
same,Barnyardgrass plant response rating,"barnyardgrass [3]; 125 g ai/ha, visual rating",10
same,Barnyardgrass plant response rating,"barnyardgrass [3]; 500 g ai/ha, visual rating",20
same,Cocklebur plant response rating (0 to 100 scale),cocklebur; [4],0
same,"Plant response rating, Cocklebur",cocklebur; [5],20
same,Cocklebur plant response rating,"cocklebur; 125 g ai/ha, visual rating",10
same,Cocklebur plant response rating,"cocklebur; 500 g ai/ha, visual rating",30
same,Blackgrass plant response rating,blackgrass; 125 g ai/ha,0
same,Blackgrass plant response rating,blackgrass; 500 g ai/ha,0
same,"Oat, Wild plant response rating",wild oat; 125 g ai/ha,0
same,"Oat, Wild plant response rating",wild oat; 500 g ai/ha,30
same,Corn plant response rating (0 to 100 scale),corn; [4],10
same,"Plant response rating, Corn",corn; [5],80
same,Corn plant response rating,"corn; 125 g ai/ha, visual rating",10
same,Corn plant response rating,"corn; 500 g ai/ha, visual rating",20
same,Lambsquarters plant response rating (0 to 100 scale),lambsquarters; [4],80
same,"Plant response rating, Lambsquarters",lambsquarters; [5],100
same,Lambsquarters plant response rating,"lambsquarters; 125 g ai/ha, visual rating",60
same,Lambsquarters plant response rating,"lambsquarters; 500 g ai/ha, visual rating",80
same,Wheat plant response rating,wheat; 125 g ai/ha,0
same,Wheat plant response rating,wheat; 500 g ai/ha,0
